The text below walks through data of US11505526B2, “Aryl-piperidine derivatives” (Artax Biopharma Inc., priority 2017, dated 2022).

Molecules are shown by their SMILES. Read-outs that look alike come from different tables or passages of the source. Bounds are passed on as bounds.

One series concerns the target CYP2C19 (Homo sapiens (Human), UniProt P33261). The series is described as follows: CYP inhibition, CYP2C19. It is filed as in vitro ADME. As to conditions: microsomes, metabolite 4′-hydroxy mephenytoin. How it is done:
(§1) For each isozyme, microsomes-buffer-substrate mixture (MBS mix) is prepared by premixing appropriate volumes of buffer, microsomes and substrate. MBS mixture (179 μL) is transferred to a 96-well reaction plate. An aliquot (1 μL) is spiked from corresponding wells of Test Item stock solution plate to reaction plate. The reaction plate is pre-incubated for 5 minutes at 37° C. Reaction is initiated by the addition of 20 μL of NADPH solution. Each experiment is performed in duplicate. Reaction plate is incubated for predetermined time at 37° C. and quenched using either 200 μL of acetonitrile (for CYP2C9, CYP2D6, CYP2C19 and CYP3A4) or 200 μL of a mixture of 70:30 1% formic acid:acetonitrile (for CYP1A2).

A short description of series [1]: Microsomal stability, rat liver microsomes. Conditions: 0.5 mg/mL protein, read-out: Microsomal stability (T1/2 min) Rat. Type of series: in vitro ADME. As to the method:
(§2) Intrinsic clearance studies are performed individually with mouse, rat and human liver microsomes at 0.5 mg/mL protein concentration. Briefly, for protein concentration 0.5 mg/mL assay, liver microsomal protein (12.5 uL), NAPDH (50 uL) and phosphate buffer (435 uL) are co-incubated (pre-incubation) in a 96-well deep well plate in an orbital incubator (10 min, 37° C.). Reactions are initiated by the addition of 2.5 uL of test item working stock solution (100 uM). Aliquots (50 uL) are withdrawn from the reaction tube at 0, 5, 10, 20 and 30 minutes and the reaction is immediately terminated by transferring to a 96 deep well plate containing 50 uL of acetonitrile. Verapamil is used as a positive control in mouse, rat and human liver microsomes. To the quenched samples internal standard is added and vortex mixed followed by centrifugation at 4000 rpm for 10 minutes and an aliquot of supernatant is taken for LC-MS/MS analysis. Samples are analyzed by a suitable fit-for-purpose multiple reaction monitoring method developed on LC-MS/MS using and API 4000 mass spectrometer to estimate the area ratio (analyte peak area/internal standard peak area).
Background: Microsomes from liver hold many membrane-bound enzymes, among them those of drug oxidation.

Another series deals with CYP3A4 (Homo sapiens (Human), UniProt P08684). The series is described as follows: CYP inhibition, CYP3A4. Type of series: in vitro ADME. Conditions: footnote not given, CYP3A4 metabolites monitored: 1-hydroxy midazolam, 6-β-hydroxy testosterone. As to the method: as §1
Series [2] can be described thus: Microsomal stability, human liver microsomes. It is filed as in vitro ADME. Conditions: 0.5 mg/mL protein, read-out: Microsomal stability (T1/2 min) Human. As to the method: as §2
The target of another series is CYP1A2 (Homo sapiens (Human), UniProt P05177). As to the kind of experiment: CYP inhibition, CYP1A2. It is filed as in vitro ADME. As to conditions: microsomes, metabolite acetaminophen. As to the method:
as §1

The next series deals with CYP2D6 (Homo sapiens (Human), UniProt P10635). The series is described as follows: CYP inhibition, CYP2D6. Type of series: in vitro ADME. As to conditions: microsomes, metabolite dextrorphan. As to the method:
as §1

For another series, the target named is hERG (Homo sapiens (Human), UniProt Q12809). As to the kind of experiment: hERG inhibition, patch clamp (Port-a-Patch) on HEK cells stably transfected with the hERG clone, IKr current. As to conditions: concentrations tested 1, 3, 10 and 30 μM. It is filed as cell-based. As to the method: (§3) HEK cells stably transfected with the hERG clone are maintained at 37±2° C. in a 5% CO2 incubator. The cells are initially revived and grown in DMEM/F12+GlutaMAX-I medium supplemented with 9% fetal bovine serum (FBS) and antibiotics (Penicillin 100 IU/mL Streptomycin 100 μg/mL) (complete medium). Furthermore, the cells are continuously maintained and passaged in complete media in addition to the appropriate concentration of selection antibiotic (Geneticin (G418) 200 μg/mL) (Selection media). The cells are sub cultured every 2-3 days and medium is changed with complete medium at least a day before the experiment.
(§4) The cells are harvested on the day of experiment, dislodged and suspended in sterile filtered external solution (NaCl 140 mM, KCl 4 mM, MgCl2 1 mM, CaCl2 2 mM, D-Glucose monohydrate 5 mM, Hepes/NaOH 10 mM, pH 7.4, Osmolarity:298+/−5 mOsmol).
(§5) The NPC®-1 chip of the Port-a-Patch® is filled with 5 μL of internal solution (KCl 50 mM, NaCl 10 mM, KFl 60 mM, EGTA 20 mM, Hepes/KOH 10 mM, pH 7.2, Osmolarity: 285+/−5 mOsmol) and it is screwed onto the chip holder. The Faraday cage is then fixed on the chip holder, such that the external electrode is placed near to the chip aperture. 5 μL of external solution is added to the center of the aperture so that the external electrode is also in contact with the solution.
(§6) The experiment is be initiated. […] The suction automatically attracts a cell to the aperture, resulting in an increase in the chip resistance. When the cell is captured and the set threshold for the resistance is reached, the software recognizes this increase in resistance and proceeds to the next step of the sealing procedure. 20 μL of seal enhancer solution (NaCl 80 mM, KCl 4 mM, MgCl2 10 mM, CaCl2) 35 mM, Hepes (Na+salt)/HCl pH 7.4, Osmolarity: 298+/−5 mOsmol) is added 2-3 times. When the threshold resistance is reached, Patch Control automatically moves to the step of improving the seal. When the desirable resistance (Rpip) is reached, whole cell mode is attained and maintained.
(§7) Finally, hERG protocol is selected to run the experiment. The seal enhancer solution is replaced with 20 μL external solution after 2-4 rinses and then the test item is added (from lower to higher concentration) and checked for current inhibition. All the experiments are performed at ambient temperature (22-25° C.).
(§8) A schematic diagram (FIG. 3) of the Pulse protocol: Cells are stimulated every 10 seconds using the following protocol. The holding potential, sweep intervals and the depolarization/repolarization potentials are furnished in the table below.
(§9) Once the stable current is attained (at least 2-5 minutes) vehicle control is added and the current measured till the stable current is achieved. 3-5 consecutive data points from the last stable current phase are considered for further analysis. […] The system performs on-line analysis for several parameters which include functions that acquire data from traces and functions that perform calculations on the results of other functions.
Background: hERG is a cardiac potassium channel; its block is linked to QT prolongation.

The target of a further series is hERG (IKr current) (Homo sapiens (Human), UniProt Q12809). The description is as above. Conditions: human, HEK cells stably transfected with the hERG clone, pH 7.4, IKr current. It is filed as cell-based. As to the method: as §3, §4, §5, §6, §7, §8, §9
Series [3] in a line: Microsomal stability, mouse liver microsomes. Type of series: in vitro ADME. As to conditions: 0.5 mg/mL protein, read-out: Microsomal stability (T1/2 min) Mouse. How it is done:
as §2

In a further series the target is CYP2C9 (Homo sapiens (Human), UniProt P11712). As to the kind of experiment: CYP inhibition, CYP2C9. It is filed as in vitro ADME. Conditions: microsomes, metabolite 4-hydroxy diclofenac. How it is done: as §1
Setting [4] is: CYP3A4^a, read-out: CYP IC50 uM CYP3A4^a.
[5] abbreviates: read-out: Percent Inhibition Mean (%).
Where [6] appears, read: read-out: Percent Inhibition Trial I.
The mark [7] stands for this setting: read-out: Percent Inhibition Trial II.

Sequence of CYP3A4 (P08684 whole entry): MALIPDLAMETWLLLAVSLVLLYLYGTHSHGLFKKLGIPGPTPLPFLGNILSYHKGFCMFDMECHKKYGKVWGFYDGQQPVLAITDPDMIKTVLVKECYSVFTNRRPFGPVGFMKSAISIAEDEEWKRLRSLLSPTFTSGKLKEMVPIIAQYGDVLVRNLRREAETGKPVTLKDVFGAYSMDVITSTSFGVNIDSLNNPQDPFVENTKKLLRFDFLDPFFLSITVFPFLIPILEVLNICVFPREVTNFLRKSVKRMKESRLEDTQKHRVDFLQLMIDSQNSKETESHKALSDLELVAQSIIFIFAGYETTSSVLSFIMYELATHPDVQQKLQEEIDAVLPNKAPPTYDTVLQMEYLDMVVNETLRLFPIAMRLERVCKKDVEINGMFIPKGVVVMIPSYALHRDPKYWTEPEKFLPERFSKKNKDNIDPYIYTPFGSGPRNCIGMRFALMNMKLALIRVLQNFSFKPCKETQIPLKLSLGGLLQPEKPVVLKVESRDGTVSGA
Sequence of hERG (IKr current) (Q12809 whole entry): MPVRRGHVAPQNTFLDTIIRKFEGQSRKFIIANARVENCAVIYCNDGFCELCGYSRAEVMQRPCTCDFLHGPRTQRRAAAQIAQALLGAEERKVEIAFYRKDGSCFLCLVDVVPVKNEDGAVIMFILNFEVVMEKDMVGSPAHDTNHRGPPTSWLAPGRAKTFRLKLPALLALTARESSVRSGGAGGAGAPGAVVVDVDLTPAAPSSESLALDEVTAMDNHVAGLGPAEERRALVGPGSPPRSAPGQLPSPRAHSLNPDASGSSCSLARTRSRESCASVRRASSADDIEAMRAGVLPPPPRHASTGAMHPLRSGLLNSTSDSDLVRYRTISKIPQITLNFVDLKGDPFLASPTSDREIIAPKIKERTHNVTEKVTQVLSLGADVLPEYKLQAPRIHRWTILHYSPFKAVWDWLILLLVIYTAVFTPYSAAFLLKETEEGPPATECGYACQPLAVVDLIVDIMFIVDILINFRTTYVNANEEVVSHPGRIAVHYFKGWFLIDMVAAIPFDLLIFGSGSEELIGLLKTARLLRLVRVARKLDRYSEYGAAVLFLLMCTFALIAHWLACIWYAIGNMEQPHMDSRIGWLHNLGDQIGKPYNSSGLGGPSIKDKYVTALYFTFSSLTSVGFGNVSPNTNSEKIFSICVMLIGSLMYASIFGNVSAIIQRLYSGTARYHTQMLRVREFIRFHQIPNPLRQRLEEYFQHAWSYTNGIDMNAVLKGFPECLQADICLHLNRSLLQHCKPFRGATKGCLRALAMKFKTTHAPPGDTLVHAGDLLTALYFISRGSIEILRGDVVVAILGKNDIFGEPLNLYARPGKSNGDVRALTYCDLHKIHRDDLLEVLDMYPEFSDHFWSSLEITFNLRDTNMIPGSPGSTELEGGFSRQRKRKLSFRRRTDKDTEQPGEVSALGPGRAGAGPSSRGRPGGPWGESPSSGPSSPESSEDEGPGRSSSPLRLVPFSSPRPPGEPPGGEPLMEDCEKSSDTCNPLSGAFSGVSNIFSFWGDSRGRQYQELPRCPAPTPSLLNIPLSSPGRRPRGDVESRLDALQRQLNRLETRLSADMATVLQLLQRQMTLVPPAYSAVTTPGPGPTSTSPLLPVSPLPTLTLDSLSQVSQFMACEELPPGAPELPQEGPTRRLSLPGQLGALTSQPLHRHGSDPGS
Sequence of hERG (Q12809 whole entry): as above
Sequence of CYP1A2 (P05177 whole entry): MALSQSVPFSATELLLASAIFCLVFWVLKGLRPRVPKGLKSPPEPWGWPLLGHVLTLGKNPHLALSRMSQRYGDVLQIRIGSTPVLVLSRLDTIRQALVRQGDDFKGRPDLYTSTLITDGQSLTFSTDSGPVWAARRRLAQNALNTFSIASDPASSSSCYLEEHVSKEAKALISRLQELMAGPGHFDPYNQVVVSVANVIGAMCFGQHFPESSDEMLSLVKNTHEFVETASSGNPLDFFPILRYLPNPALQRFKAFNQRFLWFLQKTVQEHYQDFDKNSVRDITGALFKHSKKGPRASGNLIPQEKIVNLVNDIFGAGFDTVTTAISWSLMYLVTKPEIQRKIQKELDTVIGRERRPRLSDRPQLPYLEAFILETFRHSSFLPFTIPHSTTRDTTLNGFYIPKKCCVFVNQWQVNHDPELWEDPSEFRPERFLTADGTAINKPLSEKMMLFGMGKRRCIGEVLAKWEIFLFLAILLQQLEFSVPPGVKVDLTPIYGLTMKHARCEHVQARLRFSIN
Sequence of CYP2C9 (P11712 whole entry): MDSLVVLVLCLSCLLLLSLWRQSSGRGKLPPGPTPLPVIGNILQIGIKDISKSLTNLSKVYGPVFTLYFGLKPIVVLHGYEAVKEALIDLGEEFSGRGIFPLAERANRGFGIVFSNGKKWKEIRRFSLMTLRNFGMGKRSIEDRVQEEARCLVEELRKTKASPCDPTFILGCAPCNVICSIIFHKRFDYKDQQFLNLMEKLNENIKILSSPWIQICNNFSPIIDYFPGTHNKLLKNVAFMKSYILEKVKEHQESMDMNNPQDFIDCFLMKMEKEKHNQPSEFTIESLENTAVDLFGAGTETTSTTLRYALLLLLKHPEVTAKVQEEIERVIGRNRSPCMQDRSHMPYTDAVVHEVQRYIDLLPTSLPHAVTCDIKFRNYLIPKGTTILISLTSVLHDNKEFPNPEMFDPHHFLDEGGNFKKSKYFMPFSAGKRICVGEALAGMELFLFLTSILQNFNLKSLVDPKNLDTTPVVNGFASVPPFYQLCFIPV
Sequence of CYP2C19 (P33261 whole entry): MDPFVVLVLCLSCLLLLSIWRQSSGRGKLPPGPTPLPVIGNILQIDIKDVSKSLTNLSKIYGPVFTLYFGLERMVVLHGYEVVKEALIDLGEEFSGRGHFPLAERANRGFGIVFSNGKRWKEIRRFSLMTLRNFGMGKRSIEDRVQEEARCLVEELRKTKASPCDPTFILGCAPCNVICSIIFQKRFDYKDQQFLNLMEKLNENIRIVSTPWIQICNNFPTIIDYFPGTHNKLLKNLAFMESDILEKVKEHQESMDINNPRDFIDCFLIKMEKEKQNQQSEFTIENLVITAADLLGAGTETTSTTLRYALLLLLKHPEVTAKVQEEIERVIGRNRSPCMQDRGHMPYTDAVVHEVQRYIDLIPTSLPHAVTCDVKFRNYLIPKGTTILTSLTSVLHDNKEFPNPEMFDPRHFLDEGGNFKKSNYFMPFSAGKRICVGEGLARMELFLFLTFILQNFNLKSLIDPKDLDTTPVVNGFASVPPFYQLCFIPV
Sequence of CYP2D6 (P10635 whole entry): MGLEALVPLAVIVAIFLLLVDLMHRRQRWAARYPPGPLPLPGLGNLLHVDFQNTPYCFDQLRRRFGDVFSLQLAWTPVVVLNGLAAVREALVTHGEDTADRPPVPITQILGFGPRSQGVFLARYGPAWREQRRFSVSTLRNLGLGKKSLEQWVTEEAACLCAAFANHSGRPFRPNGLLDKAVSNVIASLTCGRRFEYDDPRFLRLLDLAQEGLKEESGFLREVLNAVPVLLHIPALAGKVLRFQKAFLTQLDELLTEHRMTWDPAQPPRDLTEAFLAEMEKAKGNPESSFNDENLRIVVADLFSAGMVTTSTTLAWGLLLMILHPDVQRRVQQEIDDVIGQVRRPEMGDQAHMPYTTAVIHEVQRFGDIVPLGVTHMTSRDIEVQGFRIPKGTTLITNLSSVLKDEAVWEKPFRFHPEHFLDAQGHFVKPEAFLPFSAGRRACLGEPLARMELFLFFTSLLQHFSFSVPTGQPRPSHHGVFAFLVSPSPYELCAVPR

What is called IC50 is the concentration that inhibits the measured activity by half. As usually defined, the inhibition is the share of the control response that was lost under treatment. Consider `O=C(c1ccncc1)C1CCCN(Cc2ccccc2)C1` (stereo not drawn) [IV-6], for which the IC50 was no more than 5 µM at CYP2C19; no more than 5 µM at CYP3A4 (setting [4]); 5 to 20 µM on CYP3A4 (read-out: CYP IC50 uM CYP3A4^b); 20 to 50 µM at CYP1A2; no more than 5 µM at CYP2D6; 44.6 µM against hERG. Moreover, at CYP2C9, the IC50 was in the range of 5 to 20 µM. Besides, the half-life at 0.5 µM was less than 10 min in series [1], 10 to 30 min in series [2] and less than 10 min in series [3]. Besides, the inhibition at 1 µM was 2.37% on hERG (IKr current) (setting [5]), 0% on hERG (IKr current) (setting [6]) and 4.74% on hERG (IKr current) (setting [7]). Moreover, the inhibition at 3 µM at hERG (IKr current) (setting [5]), on hERG (IKr current) (setting [6]) and on hERG (IKr current) (setting [7]) was 0% throughout. Also, the values for the inhibition at 10 µM at hERG (IKr current) (setting [5]), at hERG (IKr current) (setting [6]) and at hERG (IKr current) (setting [7]) were 10.2%, 7.16% and 13.1%, respectively. The inhibition at 30 µM turned out to be 35.5% on hERG (IKr current) (setting [5]), 39.9% at hERG (IKr current) (setting [6]) and 31.1% at hERG (IKr current) (setting [7]).

As for `O=C(c1ncccn1)C1CCCN(Cc2ccccc2)C1` (stereo not drawn) [IV-7], the IC50 at CYP2C19 is greater than 50 µM; at CYP3A4 (setting [4]), greater than 50 µM; at CYP3A4 (read-out: CYP IC50 uM CYP3A4^b) it was greater than 50 µM; on CYP1A2, greater than 50 µM; on CYP2D6 it was 5 to 20 µM; against hERG, 73.2 µM. Further, at CYP2C9, the IC50 is greater than 50 µM. In addition, the results for the half-life at 0.5 µM in series [1], in series [2] and in [3] were 10 to 30 min, no less than 30 min and no less than 30 min, respectively. Moreover, the inhibition at 1 µM on hERG (IKr current) (setting [5]), on hERG (IKr current) (setting [6]) and at hERG (IKr current) (setting [7]) was 0% each time. Further, the results for the inhibition at 3 µM at hERG (IKr current) (setting [5]), at hERG (IKr current) (setting [6]) and at hERG (IKr current) (setting [7]) were 0.73%, 1.46% and 0%, respectively. The inhibition at 10 µM at hERG (IKr current) (setting [5]) stood at 1.99%; at hERG (IKr current) (setting [6]), 3.44%; at hERG (IKr current) (setting [7]), 0.54%. Also, the inhibition at 30 µM on hERG (IKr current) (setting [5]) turned out to be 21.6%; on hERG (IKr current) (setting [6]), 17.2%; on hERG (IKr current) (setting [7]), 25.9%.

As to `O=C(c1ccc(Cl)cc1)C1CCCN(C(=O)c2ccccc2)C1` (stereo not drawn) [Compound V-4], the 50% inhibitory concentration (IC50) is no more than 5 µM on CYP2C19; greater than 50 µM at CYP3A4 (setting [4]); 20 to 50 µM at CYP3A4 (read-out: CYP IC50 uM CYP3A4^b); no more than 5 µM at CYP1A2; no more than 5 µM at CYP2D6; 76 µM against hERG. Besides, the IC50 at CYP2C9 was 5 to 20 µM. Moreover, the half-life at 0.5 µM in series [1] was less than 10 min; in series [2], 10 to 30 min; in series [3], less than 10 min. Moreover, the inhibition at 1 µM at hERG (IKr current) (setting [5]) was determined as 13.2%; at hERG (IKr current) (setting [6]), 16.2%; at hERG (IKr current) (setting [7]), 10.2%. The inhibition at 3 µM amounted to 18.8% at hERG (IKr current) (setting [5]), 20.5% on hERG (IKr current) (setting [6]) and 17% on hERG (IKr current) (setting [7]). Moreover, the inhibition at 10 µM on hERG (IKr current) (setting [5]) amounted to 23.1%; on hERG (IKr current) (setting [6]), 26.4%; on hERG (IKr current) (setting [7]), 19.8%. Also, the inhibition at 30 µM at hERG (IKr current) (setting [5]) is 39.1%; on hERG (IKr current) (setting [6]), 39.5%; on hERG (IKr current) (setting [7]), 38.7%.
